This is an account of results in patent US12082584B2, “BOC-butenolide, an antifouling compound that has potent ability to inhibit the settlement of marine invertebrate larvae” (The Hong Kong University of Science and Technology, priority 2021, dated 2024).

Data set [1] can be described thus: Stability of BOC-butenolide. The class given is physicochemical. As to conditions: compared to butenolide. How it is done:
The stability of BOC-butenolide was measured by the concentration changes of BOC-butenolide in ASW throughout 3 months. The starting nominal concentration of BOC-butenolide was 200 ppm. At every time point, 5 mL of the solution was drawn and mixed with 10 mL dichloromethane (DCM). The DCM fraction with the analyte was dried under nitrogen gas, redissolved reconcentrated in 1 mL of methanol and subjected to above HPLC analysis.

For the next data set, the system named is Balanus amphitrite. In words: Anti-larval settlement bioassay of barnacle cyprids (settlement and toxic effects). In kind it is in vivo. As to conditions: for settlement rate: cyprids. How it is done:
Adult A. amphitrite colonies were collected from Tso Wo Hang Pier (22°23′32.1″N 114°17′18.7″E), Hong Kong, from April to June 2018. The adults were kept in a water tank with running seawater at the Coastal Marine Laboratory (the Hong Kong University of Science and Technology) for no more than a week before experimental use. Adults were induced under light sources for 1 h to hatch and the larvae were obtained using the method described previously by Harder et al. (2001), which is hereby incorporated by reference in its entirety. The nauplii larvae newly released from the adults were reared on diatom Chaetoceros gracilis Schütt. The seawater culture medium was replaced with fresh FSW and algae every day, and the nauplii reached the competent stage, known as cyprid, after 4 d of incubation at around 28° C.
The test compounds were dissolved with a small amount of DMSO. The test compounds were used in six concentrations from 100 ppm to 3.125 ppm with 2-fold serial dilution. The same amount of DMSO was used as the negative control for all testing concentrations. Approximately 20±2 individual A. amphitrite cyprids were placed into each well of the 24-well polystyrene culture plate containing 2 mL of FSW and were subjected to different treatments. For all treatments and controls, three replicates were performed. The plates were then incubated at 25° C. in darkness. After 48 h, the number of settled and swimming larvae were counted using Leica MZ6 microscope, and possible toxic effects were also noted.

The next data set concerns Hydroides elegans. Briefly: Anti-larval settlement bioassay of H. elegans larvae (settlement and toxic effects). The class given is in vivo. How it is done: Adult H. elegans colonies were collected from a fish farm at Yung Shue O, Hong Kong (22°24′N, 114°21′E) from March to April 2019. The adults were kept in a water tank with running seawater at the Coastal Marine Laboratory (the Hong Kong University of Science and Technology) for no more than 3 days before experimental use. The larvae were collected according to the methods described by Qian and Pechenik (1998). The tube of the adults was gently cracked with forceps to release the gametes. Oocytes were then mixed with the sperm and transferred to a new container with 500 mL FSW for fertilization. Larvae were reared on microalga Isochrysis galbana (Tahitian strain) after hatching. The seawater culture medium was replaced with fresh FSW and algae every day, and the trochophore-stage larvae reached the competent stage after 5 d of incubation at around 25° C.
The test compounds were dissolved with a small amount of DMSO. The test compounds were used at six different concentrations with a 2-fold serial dilution from 100 ppm to 3.125 ppm. The same amount of DMSO was used as the negative control for all testing concentrations. Approximately 10±2 individuals of H. elegans larvae were put into each well of a 24-well polystyrene culture plate that contained 2 mL of FSW with different concentrations of test solution. Approximately 10^−4 molarity of 3-isobutyl-1-methylxanthine was added into each well as an inducer to induce the settlement of H. elegans larvae (Xu et al., 2010). The plates were then incubated at 25° C. in darkness. After 24 h, the number of settled and swimming larvae were counted using Leica MZ6 microscope, and possible toxic effects were also noted.

The next data set deals with fouling organisms. Briefly: Field test of coated PVC panels immersed in seawater. In kind it is in vivo. As to conditions: PCL-PU coating. How it is done:
(§1) The polymer/antifoulant coatings in subject invention were prepared using the solution casting method described by Ding et al. 2018. The coating was prepared by dissolving poly(ε-caprolactone) based polyurethane (PCL-PU) and BOC-butenolide, in different proportions (i.e. 95 wt % polymer and 5 wt % antifoulant for 5% antifoulant coating), in xylene with vigorous stirring until all solids have dissolved to form a uniform solution. The solution was applied onto the surface of the panels, either epoxy panel (25 mm×75 mm) for release rate determination or PVC panels (53 mm×125 mm) for field test, and the panels were then placed under room temperature for all solvent to evaporate and form a continuous coating.
The field tests were conducted at a fish farm in Yung Shue O, Hong Kong (114°21′E, 22°24′N) from January to March 2018. PVC panels (53 mm×125 mm) covered with coatings were immersed in seawater at a depth of 1 m from surface. The panels were retrieved once every month to be washed gently with seawater to remove dirt and photographed before being placed back in the sea. The antifouling potential of different panels was compared to determine the efficiency of the coatings. […] The percentage of area covered by foulers was calculated from the ratio of total fouling area to the panel area in which the area was highlighted by threshold function in ImageJ. […]

Data set [2] can be described thus: Antifoulant release rate from PCL-PU coatings in artificial seawater (HPLC). The class given is physicochemical. How it is done: as §1
The release rate of BOC-butenolide was determined by HPLC for quantification. The polymer/antifoulant coatings were prepared on an epoxy panel (25 mm×75 mm). The coated panels were then put into ASW. At certain time points (day 1, 8, 15, 22, 29, 50, 71, 92 after immersion onto ASW), the panels were transferred to individual containers with 100 mL of fresh ASW. […]

In the case of `CC(C)(C)OC(=O)NCCCCCC1C=CC(=O)O1` (stereo not shown) [BOC-butenolide, Tert-butyl (5-(5-oxo-2,5-dihydrofuran-2yl)pentyl)carbamate], the stability result in data set [1] was “increased”. The settlement rate entry with Balanus amphitrite (3.125 ppm, 48 h) is on record as “around 70%”; with Balanus amphitrite (25 ppm, 48 h) it was “around 3%”; in the data set on Hydroides elegans (3.125 ppm, 24 h) it was “up to 80%”; in the data set with Hydroides elegans (25 ppm, 24 h, significant difference with control), “around 20%”. For the same compound, the “toxicity (larval death rate)” value with Balanus amphitrite (25 ppm and below) is reported as “did not show any toxicity”; with Hydroides elegans (25 ppm and below) it was “did not show any toxicity”. In the data set with Balanus amphitrite (50 to 100 ppm, 48 h), the “attachment of barnacle cyprids” value is “inhibits the attachment”. The larval settlement result with Hydroides elegans (50 and 100 ppm, 24 h) was “no larval settlement”. The death result in the data set on Hydroides elegans (50 ppm) is listed as “around 10%”. Further, in the data set on fouling organisms, the “AF ability to resist the attachment of the fouling organisms” value was “relatively good AF ability”. Also, the initial release rate in data set [2] (10 wt % samples in PCL-PU coating) is listed as 150 μg cm^−2 day^−1. Besides, the “time the coating can still release BOC-butenolide” value in data set [2] (PCL-PU coating) is given as “at least 2 months”.
